Values after ≈ are worked out from the molar mass of the structure shown.
Each compound was assayed on MTB H37Rv (assay: Bacteriostasis experiment: MIC in 96-well plate, two-fold dilution method). Details: MTB H37Rv, statement on Table 1 data.
Type: cell-based, Mycobacterium tuberculosis

Compound	anti-mycobacterium tuberculosis MIC compared with the positive control drug INH
CCCSc1nc2c(c(=O)[nH]1)C(c1ccc(OC)cc1O)CC(=O)N2 (centres unmarked) [LSL-9-02, 2-propylmercapto-5-(2-hydroxy-4-methoxyphenyl)-5,6-dihydropyrido[2,3-d]pyrimidin-4,7(3H,8H)-dione]	equivalent to that of the positive control drug INH

Same assay, conditions: Mycobacterium tuberculosis, ATCC 27294 / H37Rv, 240 h, MTB H37Rv (ATCC 27294), 7H9 medium, 37° C., about 10 days; read-out: Inhibitory activity against Mycobacterium tuberculosis, MIC, MTB H37Rv

Compound	MIC [µg/mL]
CCCSc1nc2c(c(=O)[nH]1)C(c1cc(OC)c(OC)c(OC)c1)CC(=O)N2 (centres unmarked) [LSL-7-44, 2-propylmercapto-5-(3,4,5-trimethoxyphenyl)-5,6-dihydropyrido[2,3-d]pyrimidin-4,7(3H,8H)-dione]	16 (≈ 39.5 µM)
CCCSc1nc2c(c(=O)[nH]1)C(c1ccc(N3CCCCC3)cc1)CC(=O)N2 (centres unmarked) [LSL-10-48, 2-propylmercapto-5-(4-(piperidin-1-yl)phenyl)-5,6-dihydropyrido[2,3-d]pyrimidin-4,7(3H,8H)-dione]	2 (≈ 5.02 µM)
CCCSc1nc2c(c(=O)[nH]1)C(c1ccc(F)cc1)CC(=O)N2 (centres unmarked) [LSL-9-27, 2-propylmercapto-5-(4-fluorophenyl)-5,6-dihydropyrido[2,3-d]pyrimidin-4,7(3H,8H)-dione]	> 64
CCCSc1nc2c(c(=O)[nH]1)C(c1ccc(OC)cc1O)CC(=O)N2 (centres unmarked) [LSL-9-02, 2-propylmercapto-5-(2-hydroxy-4-methoxyphenyl)-5,6-dihydropyrido[2,3-d]pyrimidin-4,7(3H,8H)-dione]	0.5 (≈ 1.38 µM)
COc1cc(C2CC(=O)Nc3nc(SC)[nH]c(=O)c32)cc(OC)c1OC (centres unmarked) [LSL-7-43, 2-methylmercapto-5-(3,4,5-trimethoxyphenyl)-5,6-dihydropyrido[2,3-d]pyrimidin-4,7(3H,8H)-dione]	> 64
CCCSc1nc2c(c(=O)[nH]1)C(C1CCCC1)CC(=O)N2 (centres unmarked) [LSL-11-31, 2-propylmercapto-5-cyclopentyl-5,6-dihydropyrido[2,3-d]pyrimidin-4,7(3H,8H)-dione]	16 (≈ 52 µM)
CCCSc1nc2c(c(=O)[nH]1)C(c1ccc([N+](=O)[O-])cc1)CC(=O)N2 (centres unmarked) [LSL-7-50, 2-propylmercapto-5-(4-nitrophenyl)-5,6-dihydropyrido[2,3-d]pyrimidin-4,7(3H,8H)-dione]	64 (≈ 178 µM)

Source: patent US20230303561A1, “PYRIMIDINONE DERIVATIVE, PREPARATION METHOD THEREOF AND USE THEREOF IN RESISTING MYCOBACTERIUM TUBERCULOSIS INFECTION” (INSTITUTE OF MEDICINAL BIOTECHNOLOGY, CHINESE ACADEMY OF …, priority 2020, published 2023)
